Experimental data published in patent publication US10624917B2, “Compositions and methods useful for treating or preventing liver diseases or disorders, and promoting weight loss” (YALE UNIVERSITY, priority 2014, dated 2020).

Tests used:
[1] = system: Il1b and other genes in PECs; experiment: Quantitative real-time RT-PCR gene expression in PECs; assay type: cell-based, mouse; settings: peritoneal macrophages, FIG. 2E
[2] = system: HRE promoter luciferase construct in THP-1 cells; experiment: HRE-promoter luciferase reporter assay in THP-1 cells; assay type: cell-based, human; settings: LPS/PMA primed 16 hours, treatment over 8 hours
Text: FIGS. 4A-4H illustrate the finding that adenosine mediates increase in pro-IL-1β via a HIF-1α-dependent pathway. FIG. 4A: Consensus NFκB and HRE binding sites in the IL-1β promoter. FIG. 4B: LPS primed PECs obtained from A2AR-cKO and controls were stimulated with or without NECA or CGS21680. FIG. 4C: LPS primed PECs obtained from HIF-1α-cKO and controls were stimulated with or without NECA at time points as indicated. Cells were harvested and RNA isolated after each treatment and gene expression of Il1b and Hif1α quantified by real-time PCR. FIG. 4D: THP-1 cells were transfected with HRE-promoter luciferase construct and β-galactosidase plasmid in the presence or absence of CREB dominant negative plasmid (CREBΔ), and then primed with LPS/PMA followed by NECA. […] Luciferase activities were measured and normalized to β-galactosidase activity and normalized with controls. […] Luciferase activities were measured and normalized to Rluc activity and the normalized value with controls as indicated. […] IL-1β was measured in cell supernatant by ELISA. Data are expressed as the mean±SD from three independent experiments. […] HIF-1α, pro-caspase-1, Caspase-1 and pro-IL-1β was measured in cell supernatant by western blot Immunoblots shown are representative results from at least three independent experiments. […]

For `CCNC(=O)[C@H]1O[C@@H](n2cnc3c(N)nc(NCCc4ccc(CCC(=O)O)cc4)nc32)[C@H](O)[C@@H]1O` [CGS21680], the “induction of Il1b mRNA expression” value [1] was “increases”.

For `CCNC(=O)[C@H]1O[C@@H](n2cnc3c(N)ncnc32)[C@H](O)[C@@H]1O` [NECA, 5′-(N-ethylcarboxamido) adenosine], the “HRE reporter luciferase activity” value [2] was “resulted in HRE reporter luciferase activity”.
